Molecules are shown by their SMILES. *1 amine or outer side, *2 acyl side, *3 side chain or, on linkers, in order; H or OH if unused. Where a SMILES comes first, the peptide text is derived from it. Side-chain parts run from the residue outwards. [ ]: non-standard residue; d: D form. The star is where a group is joined. X3 = CCCCCCCCCCCCCCCC(=O)N[C@@H](CCC(=O)N[C@@H](CCC(=O)N[C@@H](CCC(=O)N[C@@H](CCC(=O)NCCCC[C@H](NC(=O)CCC(=O)NCCCOCCOCCOCCCNC(=O)CCC(=O)NCCCOCCOCCOCCCN*)C(N)=O)C(=O)O)C(=O)O)C(=O)O)C(=O)O; PEG12 = NCCOCCOCCOCCOCCOCCOCCOCCOCCOCCOCCOCCOCCC(=O)O; γGlu = O=C(O)[C@H](CCC(=O)[*:2])N[*:1]; Stearoyl = CCCCCCCCCCCCCCCCCC(=O)*; Palmitoyl = CCCCCCCCCCCCCCCC(=O)*; αMeK = C[C@](N)(CCCCN)C(=O)O; αMeS = C[C@](N)(CO)C(=O)O; Nle = CCCC[C@H](N)C(=O)O; AEEA = NCCOCCOCC(=O)O; Aib = CC(C)(N)C(=O)O

Consider five compounds from patent publication US10988523B2, “Modified lipidated Relaxin B chain peptides and their therapeutic use” (Sanofi, priority 2018, dated 2021).

The target of one data set is T1, RXFP1 (Homo sapiens, UniProt Q9HBX9).
T1 construct: OVCAR5 cells expressing endogenous RXFP1; endogenous in cells; host or cells: OVCAR5 cells
T1 sequence (Q9HBX9 1-757): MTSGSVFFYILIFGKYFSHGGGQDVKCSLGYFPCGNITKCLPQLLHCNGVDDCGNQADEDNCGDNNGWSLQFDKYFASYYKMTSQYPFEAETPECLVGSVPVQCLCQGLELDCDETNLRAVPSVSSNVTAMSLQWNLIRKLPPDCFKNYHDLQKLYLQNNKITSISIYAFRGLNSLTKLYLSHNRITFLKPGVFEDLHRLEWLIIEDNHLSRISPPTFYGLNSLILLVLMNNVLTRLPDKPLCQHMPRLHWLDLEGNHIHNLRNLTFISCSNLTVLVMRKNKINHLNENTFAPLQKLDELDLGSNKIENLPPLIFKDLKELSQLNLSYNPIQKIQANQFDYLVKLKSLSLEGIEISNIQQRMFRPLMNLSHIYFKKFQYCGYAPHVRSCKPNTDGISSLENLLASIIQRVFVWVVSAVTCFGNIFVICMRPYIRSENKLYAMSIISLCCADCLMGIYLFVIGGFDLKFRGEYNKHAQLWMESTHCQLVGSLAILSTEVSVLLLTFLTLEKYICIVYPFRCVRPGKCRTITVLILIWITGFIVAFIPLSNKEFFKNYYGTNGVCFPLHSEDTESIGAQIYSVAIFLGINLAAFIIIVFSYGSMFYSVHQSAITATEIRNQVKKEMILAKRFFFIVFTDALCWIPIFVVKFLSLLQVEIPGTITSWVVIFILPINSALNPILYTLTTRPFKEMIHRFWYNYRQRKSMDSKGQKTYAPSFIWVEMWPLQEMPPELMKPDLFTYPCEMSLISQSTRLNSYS
Nature of the data set: OVCAR5 cAMP assay (HTRF), RXFP1 agonist activity. It is filed as cell-based. Conditions: for EC50: OVCAR5 cells, cAMP HTRF, read-out: EC50 (nM), OVCAR 5 cells (cAMP); for Emax: OVCAR-5, maximal cAMP relative to H2-relaxin maximum (100%), read-out: EMax, OVCAR 5 cells (cAMP). The method, boiled down:
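OVCAR5 cells (endogenous RXFP1) pretreated 40 min at 37° C with 1 mM IBMX, then exposed to peptides in serum-free medium for 30 min at 37° C. Lysate cAMP read by HTRF; EC50 from variable-slope sigmoidal fit; Emax as % of H2-relaxin maximal cAMP in same run.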
(In general: Changes in cAMP serve as a functional read-out for many G protein-coupled receptors.)

Data set [1] can be described thus: Pharmacokinetic (PK) determination after i.v. or s.c. administration to rats. In kind it is in vivo, Sprague Dawley rats. To be noted: Sprague Dawley, Rat PK; for C0 / half-life: iv, 1 mg/kg i.v.; for C0: extrapolated plasma concentration at t=0, read-out: C0; for half-life / Cmax / Tmax / bioavailability: plasma; for half-life: read-out: T½ (converted); for Cmax / Tmax: sc, 3 mg/kg s.c.; for bioavailability: subcutaneous, 3 mg/kg s.c. vs 1 mg/kg i.v., dose-corrected AUC ratio. The procedure: Prior to the testing of a peptide batch, its purity (HPLC-UV) was determined. Dose was corrected for presence of salts, solvent and purity.
Sprague Dawley rats were dosed with study peptide at a dose of 1 mg/kg intravenously (i.v.) or 3 mg/kg subcutaneously (s.c.) as a solution in PBS (0.2 mg/ml and 0.6 mg/ml respectively).
Plasma samples were analyzed after protein precipitation via liquid chromatography mass spectrometry (LC/MS).
PK parameters and half-life were calculated using Phoenix 64 (WinNonlin 6.4)-Pharsight (Certara™) (non-compartment model). Values below the limit of quantification (BLQ) were replaced by zero for subsequent calculations and PK analysis.
T½: in-vivo half life, time required for test compound plasma concentration to be divided by two during the PK experiment.
C0: Extrapolated test compound plasma concentration at t=0 time point (i.v. route).
Cmax: maximal test compound plasma concentration at the indicated time point (s.c. route).
Tmax: Time point where Cmax is attained.
F %: s.c. vs i.v. bioavailability, dose-corrected area under curve (AUC) s.c. route divided by AUC i.v.

Usually EC50 stands for the concentration giving half of the maximal effect. As a reminder, the Emax is the greatest response seen or fitted, relative to the assay's reference. The term Cmax denotes the peak of the concentration-time curve. By Tmax is commonly meant the time at which the peak concentration occurs. `CCCCCCCCCCCCCCCCCC(=O)N[C@@H](CCC(=O)N[C@@H](CCC(=O)N[C@@H](CCC(=O)N[C@@H](CCC(=O)NCCCC[C@H](NC(=O)CCOCCOCCOCCOCCOCCOCCOCCOCCOCCOCCOCCOCCNC(=O)[C@H](CCCCNC(C)=O)NC(=O)[C@H](CCCCN)NC(=O)[C@H](CCCNC(=N)N)NC(=O)[C@H](CCCCN)NC(=O)[C@](C)(CO)NC(=O)[C@H](Cc1c[nH]c2ccccc12)NC(=O)[C@@H](NC(=O)[C@H](CO)NC(=O)[C@H](CCCC)NC(=O)CNC(=O)[C@H](CCC(=O)O)NC(=O)C(C)(C)NC(=O)C(C)(C)NC(=O)[C@@H](NC(=O)[C@H](CCCCNC(C)=O)NC(=O)[C@H](C)NC(=O)[C@H](CCCNC(=N)N)NC(=O)[C@@H](NC(=O)[C@H](CCCCN)NC(=O)[C@H](CCC(=O)O)NC(=O)[C@H](CCCNC(=N)N)NC(=O)CNC(=O)[C@H](CCC(=O)O)NC(=O)[C@H](CC(C)C)NC(C)=O)C(C)C)[C@@H](C)CC)[C@@H](C)O)C(N)=O)C(=O)O)C(=O)O)C(=O)O)C(=O)O` [compound 39] (Ac-LEGREKVRAK(Ac)I[Aib][Aib]EG[Nle]STW[αMeS]KRKK(Ac)[PEG12]K([γGlu-γGlu-γGlu-γGlu-Stearoyl])-NH2): at RXFP1, the EC50 is 0.03 nM and the Emax was 91%. Further, in data set [1], the C0 was 4100 nM, the half-life is 3.7 h, the concentration peaked (Cmax) at 1570 nM and the Tmax amounted to 8 h. Moreover, the bioavailability in data set [1] was 62%.
`CCCCCCCCCCCCCCCC(=O)N[C@@H](CCC(=O)N[C@@H](CCC(=O)N[C@@H](CCC(=O)N[C@@H](CCC(=O)NCCCC[C@H](NC(=O)CCC(=O)NCCCOCCOCCOCCCNC(=O)CCC(=O)NCCCOCCOCCOCCCNC(=O)[C@H](CCCCNC(C)=O)NC(=O)[C@H](C)NC(=O)[C@H](CCCNC(=N)N)NC(=O)[C@](C)(CCCCN)NC(=O)[C@H](CO)NC(=O)[C@H](Cc1ccccc1)NC(=O)[C@@H](NC(=O)[C@H](CO)NC(=O)[C@H](CCCC)NC(=O)CNC(=O)[C@H](CCC(=O)O)NC(=O)C(C)(C)NC(=O)C(C)(C)NC(=O)[C@@H](NC(=O)[C@H](CCCCNC(C)=O)NC(=O)[C@H](C)NC(=O)[C@H](CCCNC(=N)N)NC(=O)[C@@H](NC(=O)[C@H](CCCCN)NC(=O)[C@H](CCC(=O)O)NC(=O)[C@H](CCCNC(=N)N)NC(=O)CNC(=O)[C@H](CCC(=O)O)NC(=O)[C@H](CC(C)C)NC(C)=O)C(C)C)[C@@H](C)CC)[C@@H](C)O)C(N)=O)C(=O)O)C(=O)O)C(=O)O)C(=O)O` [compound 162] (Ac-LEGREKVRAK(Ac)I[Aib][Aib]EG[Nle]STFS[αMeK]RAK(Ac)-X3): at RXFP1, the EC50 stood at 0.12 nM and the Emax is 91%. In data set [1], the C0 is 3200 nM, the half-life is 5 h, the Cmax stood at 2300 nM and the Tmax was found to be 5 h. Besides, the bioavailability in data set [1] amounted to 64%.
As to `CCCCCCCCCCCCCCCCCC(=O)N[C@@H](CCC(=O)N[C@@H](CCC(=O)N[C@@H](CCC(=O)N[C@@H](CCC(=O)NCCOCCOCC(=O)NCCOCCOCC(=O)NCCOCCOCC(=O)NCCCC[C@H](NC(=O)[C@H](CCCCNC(C)=O)NC(=O)[C@H](CCCCN)NC(=O)[C@H](CCCNC(=N)N)NC(=O)[C@](C)(CCCCN)NC(=O)[C@H](CO)NC(=O)[C@H](Cc1c[nH]c2ccccc12)NC(=O)[C@@H](NC(=O)[C@H](CO)NC(=O)[C@H](CCCC)NC(=O)CNC(=O)[C@H](CCC(=O)O)NC(=O)C(C)(C)NC(=O)C(C)(C)NC(=O)[C@@H](NC(=O)[C@H](CCCCNC(C)=O)NC(=O)[C@H](C)NC(=O)[C@H](CCCNC(=N)N)NC(=O)[C@@H](NC(=O)[C@H](CCCCN)NC(=O)[C@H](CCC(=O)O)NC(=O)[C@H](CCCNC(=N)N)NC(=O)CNC(=O)[C@H](CCC(=O)O)NC(=O)[C@H](CC(C)C)NC(C)=O)C(C)C)[C@@H](C)CC)[C@@H](C)O)C(N)=O)C(=O)O)C(=O)O)C(=O)O)C(=O)O` [compound 82] (Ac-LEGREKVRAK(Ac)I[Aib][Aib]EG[Nle]STWS[αMeK]RKK(Ac)K([AEEA-AEEA-AEEA-γGlu-γGlu-γGlu-γGlu-Stearoyl])-NH2), at RXFP1, the EC50 was 0.02 nM and the Emax was found to be 89%. Further, in data set [1], the C0 is 2600 nM, the half-life is 3.4 h, the highest concentration (Cmax) was 1200 nM and the Tmax was determined as 7 h. In addition, the bioavailability in data set [1] was determined as 114%.
Consider `CCCCCCCCCCCCCCCCCC(=O)N[C@@H](CCC(=O)N[C@@H](CCC(=O)N[C@@H](CCC(=O)N[C@@H](CCC(=O)NCCCC[C@H](NC(=O)CCOCCOCCOCCOCCOCCOCCOCCOCCOCCOCCOCCOCCNC(=O)[C@H](CCCCNC(C)=O)NC(=O)[C@H](CCCCN)NC(=O)[C@H](CCCNC(=N)N)NC(=O)[C@](C)(CCCCN)NC(=O)[C@](C)(CO)NC(=O)[C@H](Cc1c[nH]c2ccccc12)NC(=O)[C@@H](NC(=O)[C@H](CO)NC(=O)[C@H](CCCC)NC(=O)CNC(=O)[C@H](CCC(=O)O)NC(=O)C(C)(C)NC(=O)C(C)(C)NC(=O)[C@@H](NC(=O)[C@H](CCCCNC(C)=O)NC(=O)[C@H](C)NC(=O)[C@H](CCCNC(=N)N)NC(=O)[C@@H](NC(=O)[C@H](CCCCN)NC(=O)[C@H](CCC(=O)O)NC(=O)[C@H](CCCNC(=N)N)NC(=O)CNC(=O)[C@H](CCC(=O)O)NC(=O)[C@H](CC(C)C)NC(C)=O)C(C)C)[C@@H](C)CC)[C@@H](C)O)C(N)=O)C(=O)O)C(=O)O)C(=O)O)C(=O)O` [compound 40] (Ac-LEGREKVRAK(Ac)I[Aib][Aib]EG[Nle]STW[αMeS][αMeK]RKK(Ac)[PEG12]K([γGlu-γGlu-γGlu-γGlu-Stearoyl])-NH2), for which, at RXFP1, the EC50 was 0.02 nM and the Emax came out at 90%. In data set [1], the C0 was 7080 nM, the half-life was 3.6 h, the concentration peaked (Cmax) at 1540 nM and the Tmax is 6 h. Besides, in data set [1], the bioavailability is 66%.
Consider `CCCCCCCCCCCCCCCC(=O)N[C@@H](CCC(=O)N[C@@H](CCC(=O)NCCCC[C@H](NC(=O)CC[C@H](NC(=O)CC[C@H](NC(=O)COCCOCCNC(=O)COCCOCCNC(=O)COCCOCCNC(=O)COCCOCCNC(=O)[C@H](CCCCNC(C)=O)NC(=O)[C@H](C)NC(=O)[C@H](CCCNC(=N)N)NC(=O)[C@](C)(CCCCN)NC(=O)[C@H](CO)NC(=O)[C@H](Cc1ccccc1)NC(=O)[C@@H](NC(=O)[C@H](CO)NC(=O)[C@H](CCCC)NC(=O)CNC(=O)[C@H](CCC(=O)O)NC(=O)C(C)(C)NC(=O)C(C)(C)NC(=O)[C@@H](NC(=O)[C@H](CCCCNC(C)=O)NC(=O)[C@H](C)NC(=O)[C@H](CCCNC(=N)N)NC(=O)[C@@H](NC(=O)[C@H](CCCCN)NC(=O)[C@H](CCC(=O)O)NC(=O)[C@H](CCCNC(=N)N)NC(=O)CNC(=O)[C@H](CCC(=O)O)NC(=O)[C@H](CC(C)C)NC(C)=O)C(C)C)[C@@H](C)CC)[C@@H](C)O)C(=O)O)C(=O)O)C(N)=O)C(=O)O)C(=O)O` [compound 160] (Ac-LEGREKVRAK(Ac)I[Aib][Aib]EG[Nle]STFS[αMeK]RAK(Ac)[AEEA][AEEA][AEEA][AEEA][γGlu][γGlu]K([γGlu-γGlu-Palmitoyl])-NH2), for which, at RXFP1, the EC50 turned out to be 0.28 nM and the Emax stood at 86%. Further, in data set [1], the C0 was 2500 nM, the half-life is 5.3 h, the peak level (Cmax) was 1200 nM and the time to peak (Tmax) worked out at 7 h. Further, in data set [1], the bioavailability stood at 66%.
